Assay results: patent publication US20230365541A1, “INHIBITOR OF ENHANCER OF ZESTE HOMOLOGUE 2, AND USE THEREOF” (HAISCO PHARMACEUTICALS PTE. LTD., priority 2020, published 2023)
Where a name gives a salt, the structure may show the parent alone.

target: EZH2 (Homo sapiens (Human), UniProt Q15910); experiment: Test method for EZH2 enzyme activity; format: biochemical; conditions: H3K27(21-44) and [3H]-SAM
Description: The compounds were dissolved in DMSO, formulated into 10 mM solutions and serially diluted with DMSO to obtain 100-fold the final concentration. 200 nL of the solutions of the compounds was transferred to a 384-well plate (Perkin Elmer, Cat. No. 6007299) by using Echo550. EZH2 (BPS, Cat. No. 51004) was diluted with 1×assay buffer (50 mM Tris-HCl 9.0, 0.01% Tween-20, 1 mM DTT) to 2-fold the final concentration (EZH2: 3 nM). A mixed solution of H3K27(21-44) and [3H]-SAM (PerkinElmer, Lot. No. 2146246) (H3K27(21-44): 200 nM, [3H]-SAM: 100 nM) was formulated. The EZH2 diluted solution was taken and added to the 384-well plate at 10 μL/well (10 μL of 1×assay buffer was added in the control group). The plate was sealed and then incubated at room temperature for 15 minutes. 10 μL of the mixed solution of H3K27 (21-44) and [3H]-SAM was added to each well. The plate was sealed and then incubated at room temperature for 60 minutes. 50 μM of SAM (Sigma, Cat. No. A7007) was formulated at low temperature and added to the 384-well plate at 10 μL/well. The sample was taken at 25 μL/well, transferred to a flashplate and incubated at room temperature for at least 1 hour. The flashplate was washed 3 times with a plate washing liquid (dH2O+0.1% Tween-20) and read by using Microbeta. The inhibition rate was calculated in Excel according to: inhibition rate (%)=(maximum valuepositive control−detection signal value)/(maximum valuepositive control−minimum valuenegative control)*100, and IC50 values were fitted by using XL-Fit.

Sequence of EZH2 (Q15910 other isoform, or with tags, fused parts or gaps isoform Q15910-2): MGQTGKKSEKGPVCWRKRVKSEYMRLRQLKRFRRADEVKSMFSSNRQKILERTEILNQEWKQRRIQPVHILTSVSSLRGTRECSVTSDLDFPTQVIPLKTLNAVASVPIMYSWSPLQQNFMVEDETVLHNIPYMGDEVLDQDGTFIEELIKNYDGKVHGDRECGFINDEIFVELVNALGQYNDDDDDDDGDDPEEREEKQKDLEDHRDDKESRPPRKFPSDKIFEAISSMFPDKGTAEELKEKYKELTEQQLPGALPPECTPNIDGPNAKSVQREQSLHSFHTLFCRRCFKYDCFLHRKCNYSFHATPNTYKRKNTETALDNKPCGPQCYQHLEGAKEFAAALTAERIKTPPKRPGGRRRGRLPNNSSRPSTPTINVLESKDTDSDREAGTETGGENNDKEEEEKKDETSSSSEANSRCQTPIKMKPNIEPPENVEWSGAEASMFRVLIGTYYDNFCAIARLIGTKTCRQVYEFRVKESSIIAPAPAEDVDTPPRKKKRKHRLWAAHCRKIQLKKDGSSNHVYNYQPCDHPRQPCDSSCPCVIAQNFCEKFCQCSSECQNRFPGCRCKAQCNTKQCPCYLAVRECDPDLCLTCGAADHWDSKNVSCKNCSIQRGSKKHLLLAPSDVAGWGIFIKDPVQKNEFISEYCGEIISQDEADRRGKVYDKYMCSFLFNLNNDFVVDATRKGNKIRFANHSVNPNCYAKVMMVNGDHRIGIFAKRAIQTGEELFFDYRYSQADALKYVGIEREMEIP
Sequence of EZH2 (O75530 2-441 partner): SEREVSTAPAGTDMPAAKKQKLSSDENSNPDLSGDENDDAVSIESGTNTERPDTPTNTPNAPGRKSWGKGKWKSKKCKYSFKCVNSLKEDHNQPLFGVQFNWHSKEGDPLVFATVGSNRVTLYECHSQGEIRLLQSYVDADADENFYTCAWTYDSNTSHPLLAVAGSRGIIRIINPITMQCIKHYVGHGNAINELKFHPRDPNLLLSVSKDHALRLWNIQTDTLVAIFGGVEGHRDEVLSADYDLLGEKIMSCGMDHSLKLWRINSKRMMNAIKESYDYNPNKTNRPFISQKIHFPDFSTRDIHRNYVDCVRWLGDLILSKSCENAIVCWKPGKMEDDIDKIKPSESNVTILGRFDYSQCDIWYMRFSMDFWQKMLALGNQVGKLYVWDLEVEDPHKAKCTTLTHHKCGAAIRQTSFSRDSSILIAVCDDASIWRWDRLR
Sequence of EZH2 (Q15022 2-739 partner): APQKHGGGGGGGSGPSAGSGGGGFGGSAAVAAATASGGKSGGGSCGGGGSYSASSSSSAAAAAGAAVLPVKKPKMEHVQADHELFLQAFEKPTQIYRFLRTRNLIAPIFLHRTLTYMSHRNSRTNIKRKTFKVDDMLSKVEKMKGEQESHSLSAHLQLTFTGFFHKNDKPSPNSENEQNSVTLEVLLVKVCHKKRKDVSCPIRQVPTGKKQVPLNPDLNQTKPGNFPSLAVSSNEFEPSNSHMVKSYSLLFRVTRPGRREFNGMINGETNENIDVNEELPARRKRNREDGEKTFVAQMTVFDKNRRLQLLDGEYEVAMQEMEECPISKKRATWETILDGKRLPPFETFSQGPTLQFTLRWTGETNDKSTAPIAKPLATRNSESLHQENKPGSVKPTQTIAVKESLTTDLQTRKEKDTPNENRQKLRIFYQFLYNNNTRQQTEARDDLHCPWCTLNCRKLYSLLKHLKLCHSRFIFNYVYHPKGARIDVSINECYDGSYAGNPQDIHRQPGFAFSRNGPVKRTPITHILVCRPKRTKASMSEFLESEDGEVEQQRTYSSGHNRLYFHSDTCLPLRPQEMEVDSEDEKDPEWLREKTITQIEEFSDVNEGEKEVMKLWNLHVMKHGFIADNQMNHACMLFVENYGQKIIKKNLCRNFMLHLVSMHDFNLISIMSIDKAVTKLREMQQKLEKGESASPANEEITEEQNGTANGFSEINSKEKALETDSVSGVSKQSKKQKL
Sequence of EZH2 (Q09028 2-425 partner): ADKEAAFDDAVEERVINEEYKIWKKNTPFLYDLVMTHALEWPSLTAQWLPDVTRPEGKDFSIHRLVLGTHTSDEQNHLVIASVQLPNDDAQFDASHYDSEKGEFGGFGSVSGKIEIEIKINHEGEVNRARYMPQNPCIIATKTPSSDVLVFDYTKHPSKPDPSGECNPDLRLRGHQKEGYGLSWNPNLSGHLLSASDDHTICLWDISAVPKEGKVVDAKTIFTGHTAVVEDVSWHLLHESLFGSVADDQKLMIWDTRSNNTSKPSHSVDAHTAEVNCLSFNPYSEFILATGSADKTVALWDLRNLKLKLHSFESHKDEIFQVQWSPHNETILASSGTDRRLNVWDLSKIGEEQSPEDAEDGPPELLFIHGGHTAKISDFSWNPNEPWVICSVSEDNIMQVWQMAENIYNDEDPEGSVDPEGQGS
Sequence of EZH2 (Q6ZN18 whole entry partner): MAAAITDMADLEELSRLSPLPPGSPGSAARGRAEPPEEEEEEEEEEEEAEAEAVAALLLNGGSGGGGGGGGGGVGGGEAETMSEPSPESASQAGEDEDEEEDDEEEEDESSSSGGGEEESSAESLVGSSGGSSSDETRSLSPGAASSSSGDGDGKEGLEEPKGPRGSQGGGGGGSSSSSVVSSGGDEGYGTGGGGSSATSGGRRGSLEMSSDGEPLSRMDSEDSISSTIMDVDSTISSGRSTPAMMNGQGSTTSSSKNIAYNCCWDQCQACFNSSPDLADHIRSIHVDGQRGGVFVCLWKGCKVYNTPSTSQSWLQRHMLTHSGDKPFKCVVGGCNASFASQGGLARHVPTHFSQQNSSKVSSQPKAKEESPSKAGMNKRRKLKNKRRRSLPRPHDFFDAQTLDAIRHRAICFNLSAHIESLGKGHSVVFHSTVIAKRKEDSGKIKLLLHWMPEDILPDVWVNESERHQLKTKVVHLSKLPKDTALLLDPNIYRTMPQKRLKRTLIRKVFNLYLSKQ

SMILES | IC50 [nM]
CSc1cc(C)[nH]c(=O)c1CNC(=O)c1cc(Cl)c2c(c1C)OC(C)([C@H]1CC[C@@H](NCC3(C)COC3)CC1)O2 (single isomer, unassigned) [Compound 3, isomer 1, 7-chloro-2,4-dimethyl-N-((6-methyl-4-(methylthio)-2-oxo-1,2-dihydropyridin-3-yl)methyl)-2-(4-(((3-methyloxetan-3-yl)methyl)amino)cyclohexyl)benzo[d][1,3]dioxole-5-carboxamide trifluoroacetate] | 0.65
CSc1cc(C)[nH]c(=O)c1CNC(=O)c1cc(Cl)c2c(c1C)OC(C)([C@H]1CC[C@@H](NCC3(C)COC3)CC1)O2 (single isomer, unassigned) [Compound 3, isomer 2, 7-chloro-2,4-dimethyl-N-((6-methyl-4-(methylthio)-2-oxo-1,2-dihydropyridin-3-yl)methyl)-2-(4-(((3-methyloxetan-3-yl)methyl)amino)cyclohexyl)benzo[d][1,3]dioxole-5-carboxamide trifluoroacetate] | 0.51
CSc1cc(C)[nH]c(=O)c1CNC(=O)c1cc(Cl)c2c(c1C)OC(C)(C1CCN(C(=O)C3CC(F)(F)C3)CC1)O2 (single isomer, unassigned) [Compound 5, isomer 1, 7-chloro-2-(1-(3,3-difluorocyclobutane-1-carbonyl)piperidin-4-yl)-2,4-dimethyl-N-((6-methyl-4-(methylthio)-2-oxo-1,2-dihydropyridin-3-yl)methyl)benzo[d][1,3]dioxole-5-carboxamide] | 0.58
CSc1cc(C)[nH]c(=O)c1CNC(=O)c1cc(Cl)c2c(c1C)OC(C)([C@H]1CC[C@@H](NC(=O)C3CC(F)(F)C3)CC1)O2 (single isomer, unassigned) [Compound 6, isomer 1, 7-chloro-2-(4-(3,3-difluorocyclobutane-1-carboxamido)cyclohexyl)-2,4-dimethyl-N-((6-methyl-4-(methylthio)-2-oxo-1,2-dihydropyridin-3-yl)methyl)benzo[d][1,3]dioxole-5-carboxamide] | 0.52
CSc1cc(C)[nH]c(=O)c1CNC(=O)c1cc(Cl)c2c(c1C)OC(C)([C@H]1CC[C@@H](NC(=O)C3CC(F)(F)C3)CC1)O2 (single isomer, unassigned) [Compound 6, isomer 2, 7-chloro-2-(4-(3,3-difluorocyclobutane-1-carboxamido)cyclohexyl)-2,4-dimethyl-N-((6-methyl-4-(methylthio)-2-oxo-1,2-dihydropyridin-3-yl)methyl)benzo[d][1,3]dioxole-5-carboxamide] | 0.64
CSc1cc(C)[nH]c(=O)c1CNC(=O)c1cc(Cl)c2c(c1C)OC(C)(C1CCN(C(=O)C3CC3)CC1)O2 (single isomer, unassigned) [Compound 7, isomer 1, 7-chloro-2-(1-(cyclopropanecarbonyl)piperidin-4-yl)-2,4-dimethyl-N-((6-methyl-4-(methylthio)-2-oxo-1,2-dihydropyridin-3-yl)methyl)benzo[d][1,3]dioxole-5-carboxamide] | 0.52
CSc1cc(C)[nH]c(=O)c1CNC(=O)c1cc(Cl)c2c(c1C)OC(C)(C1CCC(c3cnn(C)c3)CC1)O2 (single isomer, unassigned) [Compound 8, isomer 1, 7-chloro-2,4-dimethyl-2-(4-(1-methyl-1H-pyrazol-4-yl)cyclohexyl)-N-((6-methyl-4-(methylthio)-2-oxo-1,2-dihydropyridin-3-yl)methyl)benzo[d][1,3]dioxole-5-carboxamide] | 0.51
CSc1cc(C)[nH]c(=O)c1CNC(=O)c1cc(Cl)c2c(c1C)OC(C)(C1CCC(c3cnn(C)c3)CC1)O2 (single isomer, unassigned) [Compound 8, isomer 2, 7-chloro-2,4-dimethyl-2-(4-(1-methyl-1H-pyrazol-4-yl)cyclohexyl)-N-((6-methyl-4-(methylthio)-2-oxo-1,2-dihydropyridin-3-yl)methyl)benzo[d][1,3]dioxole-5-carboxamide] | 0.9
CSc1cc(C)[nH]c(=O)c1CNC(=O)c1cc(Cl)c2c(c1C)OC(C)(C1CCN(CC3CC(F)(F)C3)CC1)O2 (single isomer, unassigned) [Compound 10, isomer 1, 7-chloro-2-(1-((3,3-difluorocyclobutyl)methyl)piperidin-4-yl)-2,4-dimethyl-N-((6-methyl-4-(methylthio)-2-oxo-1,2-dihydropyridin-3-yl)methyl)benzo[d][1,3]dioxole-5-carboxamide] | 0.56
CSc1cc(C)[nH]c(=O)c1CNC(=O)c1cc(Cl)c2c(c1C)OC(C)(C1CCN(C3CC(F)(F)C3)CC1)O2 (single isomer, unassigned) [Compound 12, isomer 1, 7-chloro-2-(1-(3,3-difluorocyclobutyl)piperidin-4-yl)-2,4-dimethyl-N-((6-methyl-4-(methylthio)-2-oxo-1,2-dihydropyridin-3-yl)methyl)benzo[d][1,3]dioxole-5-carboxamide] | 0.74
CSc1cc(C)[nH]c(=O)c1CNC(=O)c1cc(Cl)c2c(c1C)OC(C)([C@H]1CC[C@H](CNC3CC(F)(F)C3)CC1)O2 (single isomer, unassigned) [Compound 40, isomer 1, 7-chloro-2-(4-(((3,3-difluorocyclobutyl)amino)methyl)cyclohexyl)-2,4-dimethyl-N-((6-methyl-4-(methylthio)-2-oxo-1,2-dihydropyridin-3-yl)methyl)benzo[d][1,3]dioxole-5-carboxamide] | 0.61
CSc1cc(C)[nH]c(=O)c1CNC(=O)c1cc(Cl)c2c(c1C)OC(C)([C@H]1CC[C@H](CNC3CC(F)(F)C3)CC1)O2 (single isomer, unassigned) [Compound 40, isomer 2, 7-chloro-2-(4-(((3,3-difluorocyclobutyl)amino)methyl)cyclohexyl)-2,4-dimethyl-N-((6-methyl-4-(methylthio)-2-oxo-1,2-dihydropyridin-3-yl)methyl)benzo[d][1,3]dioxole-5-carboxamide] | 0.51

Further lines, results first:

IC50 [nM] | SMILES
0.6 | CSc1cc(C)[nH]c(=O)c1CNC(=O)c1cc(Cl)c2c(c1C)OC(C)(C1CCC(N3CC(N(C)C)C3)CC1)O2 (single isomer, unassigned) [Compound 1, isomer 2, 7-chloro-2-(4-(3-(dimethylamino)azetidin-1-yl)cyclohexyl)-2,4-dimethyl-N-((6-methyl-4-(methylthio)-2-oxo-1,2-dihydropyridin-3-yl)methyl)benzo[d][1,3]dioxole-5-carboxamide]
0.92 | CSc1cc(C)[nH]c(=O)c1CNC(=O)c1cc(Cl)c2c(c1C)OC(C)(C1CCC(N3CC(C#N)C3)CC1)O2 (single isomer, unassigned) [Compound 2, isomer 1, 7-chloro-2-(4-(3-cyanoazetidin-1-yl)cyclohexyl)-2,4-dimethyl-N-((6-methyl-4-(methylthio)-2-oxo-1,2-dihydropyridin-3-yl)methyl)benzo[d][1,3]dioxole-5-carboxamide]
0.72 | CSc1cc(C)[nH]c(=O)c1CNC(=O)c1cc(Cl)c2c(c1C)OC(C)(C1CCC(N3CC(C#N)C3)CC1)O2 (single isomer, unassigned) [Compound 2, isomer 2, 7-chloro-2-(4-(3-cyanoazetidin-1-yl)cyclohexyl)-2,4-dimethyl-N-((6-methyl-4-(methylthio)-2-oxo-1,2-dihydropyridin-3-yl)methyl)benzo[d][1,3]dioxole-5-carboxamide]
0.81 | CO[C@H]1C[C@H](NC2CCC(C3(C)Oc4c(Cl)cc(C(=O)NCc5c(SC)cc(C)[nH]c5=O)c(C)c4O3)CC2)C1 (single isomer, unassigned) [Compound 9, isomer 1, 7-chloro-2-(4-((trans-3-methoxycyclobutyl)amino)cyclohexyl)-2,4-dimethyl-N-((6-methyl-4-(methylthio)-2-oxo-1,2-dihydropyridin-3-yl)methyl)benzo[d][1,3]dioxole-5-carboxamide]
0.48 | CO[C@H]1C[C@H](NC2CCC(C3(C)Oc4c(Cl)cc(C(=O)NCc5c(SC)cc(C)[nH]c5=O)c(C)c4O3)CC2)C1 (single isomer, unassigned) [Compound 9, isomer 2, 7-chloro-2-(4-((trans-3-methoxycyclobutyl)amino)cyclohexyl)-2,4-dimethyl-N-((6-methyl-4-(methylthio)-2-oxo-1,2-dihydropyridin-3-yl)methyl)benzo[d][1,3]dioxole-5-carboxamide]
0.78 | CSc1cc(C)[nH]c(=O)c1CNC(=O)c1cc(Cl)c2c(c1C)OC(C)(C1CCC(N3CCC4(CNC(=O)C4)C3)CC1)O2 (single isomer, unassigned) [Compound 18, isomer 2, 7-chloro-2,4-dimethyl-N-((6-methyl-4-(methylthio)-2-oxo-1,2-dihydropyridin-3-yl)methyl)-2-(4-(8-oxo-2,7-diazaspiro[4.4]nonan-2-yl)cyclohexyl)benzo[d][1,3]dioxole-5-carboxamide]
